Source: paper PMC4503722, “Novel Phenotypic Outcomes Identified for a Public Collection of Approved Drugs from a Publicly Accessible Panel of Assays” (PLoS ONE, 2015)
Read-outs that look alike come from different tables or passages of the source.

Experiments:
hKDR = biological target: T1, hKDR (Homo sapiens, UniProt P35968); experiment: Cerep LANCE kinase assay hKDR (S1 assay 32); assay type: biochemical; conditions: for IC50: read-out: hKDR LANCE summarized IC50
T1 construct: purchased Cerep (LANCE kinase assay platform, contract assay)

Colo320 = experiment: cells; assay type: cell-based; conditions: basal; for IC50: read-out: Basal_Viability ATP Colo 320 summarized IC50
hp70S6K1 (RPS6KB1) = biological target: T2, hp70S6K1 (RPS6KB1) (Homo sapiens, UniProt P23443); experiment: Cerep LANCE kinase assay hp70S6K1 (S1 assay 31); assay type: biochemical; conditions: for IC50: read-out: hp70S6K1 LANCE summarized IC50
T2 construct: purchased Cerep (LANCE kinase assay platform, contract assay)

SNU-C1 = experiment: cells; assay type: cell-based; conditions: basal; for IC50: read-out: Basal_Viability ATP SNU-C1 summarized IC50
[1] = system: ECFC/ADSC co-culture cell nuclei number; conditions: for IC50: read-out: VEGF_ADSC\ECFC Angio Hoechst NucArea summarized IC50
[2] = system: endothelial tube formation in co-cultures of ECFCs and ADSCs treated with VEGF; experiment: cells; assay type: cell-based, human; conditions: for IC50: read-out: VEGF_ADSC\ECFC Angio CD31 TubeArea summarized IC50
HeLa cells = experiment: cells; assay type: cell-based;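 as to Hela CellCycMod PI 4N summarized IC50: value tracks stimulation of 4N DNA content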
SW480 = experiment: cells; assay type: cell-based; conditions: basal; for IC50: read-out: Basal_Viability ATP SW480 summarized IC50
HT-29 = experiment: cells; assay type: cell-based; conditions: basal; for IC50: read-out: Basal_Viability ATP HT-29 summarized IC50
HCT116 = experiment: cells; assay type: cell-based; conditions: basal; for IC50: read-out: Basal_Viability ATP HCT116 summarized IC50
RKO = experiment: cells; assay type: cell-based; conditions: basal; for IC50: read-out: Basal_Viability ATP RKO summarized IC50
[3] = system: HCT116 cells treated with a GSK3β inhibitor; experiment: cells; assay type: cell-based; conditions: for IC50: read-out: GSK3b inh pretreated_Viability ATP HCT116 summarized IC50
hJAK2 = biological target: T3, hJAK2 (Homo sapiens, UniProt O60674); experiment: Cerep LANCE kinase assay hJAK2 (S1 assay 33); assay type: biochemical; conditions: for IC50: read-out: hJAK2 LANCE summarized IC50
T3 construct: purchased Cerep (LANCE kinase assay platform, contract assay)

hFLT3 = biological target: T4, hFLT3 (Homo sapiens, UniProt P36888); experiment: Cerep LANCE kinase assay hFLT3 (S1 assay 35); assay type: biochemical; conditions: for IC50: read-out: hFLT3 LANCE summarized IC50
T4 construct: purchased Cerep (LANCE kinase assay platform, contract assay)

hGSK3b = biological target: T5, hGSK3b (Homo sapiens, UniProt P49841); experiment: Cerep LANCE kinase assay hGSK3b (S1 assay 34); assay type: biochemical; conditions: for IC50: read-out: hGSK3b LANCE summarized IC50
T5 construct: purchased Cerep (LANCE kinase assay platform, contract assay)

DLD-1 = experiment: cells; assay type: cell-based; conditions: basal; for IC50: read-out: Basal_Viability ATP DLD-1 summarized IC50
[4] = assay number 14, 2N, read-out: Hela CellCycMod PI 2N summarized IC50
[5] = assay number 16, 4N, read-out: Hela CellCycMod PI 4N summarized IC50
[6] = assay number 17, MI, read-out: Hela CellCycMod PI MI summarized IC50
[7] = assay number 26, GSK3b inhibitor pretreated

T2 sequence (P23443 whole entry): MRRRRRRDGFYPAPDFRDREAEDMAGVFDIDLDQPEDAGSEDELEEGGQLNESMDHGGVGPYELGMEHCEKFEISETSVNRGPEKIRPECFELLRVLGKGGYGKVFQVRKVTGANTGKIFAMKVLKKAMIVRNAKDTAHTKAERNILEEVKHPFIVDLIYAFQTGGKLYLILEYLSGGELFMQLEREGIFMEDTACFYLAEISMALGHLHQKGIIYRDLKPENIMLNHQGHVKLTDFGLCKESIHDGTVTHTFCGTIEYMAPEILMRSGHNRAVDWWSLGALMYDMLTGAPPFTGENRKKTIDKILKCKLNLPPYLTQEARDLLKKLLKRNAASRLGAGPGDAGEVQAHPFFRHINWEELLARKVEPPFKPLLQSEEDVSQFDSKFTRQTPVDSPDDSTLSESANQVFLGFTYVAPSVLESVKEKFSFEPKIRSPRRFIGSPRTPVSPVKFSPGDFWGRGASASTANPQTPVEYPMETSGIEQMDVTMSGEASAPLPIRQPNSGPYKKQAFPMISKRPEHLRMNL
T3 sequence (O60674 whole entry): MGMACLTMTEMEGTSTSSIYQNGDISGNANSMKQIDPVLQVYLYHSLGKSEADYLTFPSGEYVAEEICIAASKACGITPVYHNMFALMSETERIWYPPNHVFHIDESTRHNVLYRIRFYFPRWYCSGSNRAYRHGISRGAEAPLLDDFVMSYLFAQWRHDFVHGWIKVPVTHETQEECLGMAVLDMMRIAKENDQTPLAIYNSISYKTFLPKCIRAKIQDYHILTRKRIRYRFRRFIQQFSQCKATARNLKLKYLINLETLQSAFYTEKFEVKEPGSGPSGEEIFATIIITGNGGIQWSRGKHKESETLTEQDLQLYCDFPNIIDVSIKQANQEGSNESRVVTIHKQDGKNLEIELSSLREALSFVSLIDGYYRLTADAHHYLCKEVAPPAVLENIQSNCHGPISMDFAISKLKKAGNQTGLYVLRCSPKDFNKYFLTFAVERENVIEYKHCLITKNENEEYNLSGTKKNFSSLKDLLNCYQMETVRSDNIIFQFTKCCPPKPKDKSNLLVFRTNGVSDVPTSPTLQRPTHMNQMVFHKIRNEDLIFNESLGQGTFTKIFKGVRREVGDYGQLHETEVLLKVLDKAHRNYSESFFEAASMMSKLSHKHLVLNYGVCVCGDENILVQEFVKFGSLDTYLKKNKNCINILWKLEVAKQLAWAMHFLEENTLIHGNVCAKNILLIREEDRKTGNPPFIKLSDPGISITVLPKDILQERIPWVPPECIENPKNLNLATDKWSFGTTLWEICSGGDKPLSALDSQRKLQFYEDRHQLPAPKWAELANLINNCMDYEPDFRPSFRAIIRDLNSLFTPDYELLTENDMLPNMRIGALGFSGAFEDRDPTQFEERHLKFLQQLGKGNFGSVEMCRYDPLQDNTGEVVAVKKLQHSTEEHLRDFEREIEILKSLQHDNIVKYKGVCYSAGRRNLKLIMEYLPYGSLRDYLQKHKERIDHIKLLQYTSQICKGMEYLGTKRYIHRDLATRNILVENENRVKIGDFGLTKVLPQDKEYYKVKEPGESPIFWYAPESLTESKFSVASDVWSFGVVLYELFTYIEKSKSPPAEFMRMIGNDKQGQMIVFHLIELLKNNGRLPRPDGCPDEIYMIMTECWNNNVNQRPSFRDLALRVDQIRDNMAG
T4 sequence (P36888 27-993): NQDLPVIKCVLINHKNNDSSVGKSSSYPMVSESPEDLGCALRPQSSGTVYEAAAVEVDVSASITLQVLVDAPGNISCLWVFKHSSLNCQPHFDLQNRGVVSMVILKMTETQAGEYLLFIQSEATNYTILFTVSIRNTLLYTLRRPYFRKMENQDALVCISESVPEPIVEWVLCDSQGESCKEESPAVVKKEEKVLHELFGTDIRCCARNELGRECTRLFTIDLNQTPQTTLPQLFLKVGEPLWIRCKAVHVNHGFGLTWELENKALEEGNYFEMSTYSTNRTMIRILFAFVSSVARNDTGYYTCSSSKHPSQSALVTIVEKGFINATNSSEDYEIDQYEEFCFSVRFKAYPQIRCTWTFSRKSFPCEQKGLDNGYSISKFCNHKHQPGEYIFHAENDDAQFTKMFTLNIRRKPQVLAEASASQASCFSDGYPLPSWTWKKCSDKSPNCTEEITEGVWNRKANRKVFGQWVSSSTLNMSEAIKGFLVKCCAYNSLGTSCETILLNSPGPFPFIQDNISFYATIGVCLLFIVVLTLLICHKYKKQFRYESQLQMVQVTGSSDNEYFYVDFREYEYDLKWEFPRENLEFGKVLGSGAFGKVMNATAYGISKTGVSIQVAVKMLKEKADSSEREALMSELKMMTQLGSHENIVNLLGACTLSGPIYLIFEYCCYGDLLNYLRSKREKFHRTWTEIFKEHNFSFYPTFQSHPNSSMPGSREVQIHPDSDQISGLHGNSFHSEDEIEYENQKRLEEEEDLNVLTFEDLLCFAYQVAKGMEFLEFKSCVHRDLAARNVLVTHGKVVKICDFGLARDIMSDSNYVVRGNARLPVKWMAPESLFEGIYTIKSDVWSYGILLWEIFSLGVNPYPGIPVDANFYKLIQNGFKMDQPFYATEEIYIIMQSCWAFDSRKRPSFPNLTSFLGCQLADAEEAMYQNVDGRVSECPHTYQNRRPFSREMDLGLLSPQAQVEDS
T1 sequence (P35968 20-1356): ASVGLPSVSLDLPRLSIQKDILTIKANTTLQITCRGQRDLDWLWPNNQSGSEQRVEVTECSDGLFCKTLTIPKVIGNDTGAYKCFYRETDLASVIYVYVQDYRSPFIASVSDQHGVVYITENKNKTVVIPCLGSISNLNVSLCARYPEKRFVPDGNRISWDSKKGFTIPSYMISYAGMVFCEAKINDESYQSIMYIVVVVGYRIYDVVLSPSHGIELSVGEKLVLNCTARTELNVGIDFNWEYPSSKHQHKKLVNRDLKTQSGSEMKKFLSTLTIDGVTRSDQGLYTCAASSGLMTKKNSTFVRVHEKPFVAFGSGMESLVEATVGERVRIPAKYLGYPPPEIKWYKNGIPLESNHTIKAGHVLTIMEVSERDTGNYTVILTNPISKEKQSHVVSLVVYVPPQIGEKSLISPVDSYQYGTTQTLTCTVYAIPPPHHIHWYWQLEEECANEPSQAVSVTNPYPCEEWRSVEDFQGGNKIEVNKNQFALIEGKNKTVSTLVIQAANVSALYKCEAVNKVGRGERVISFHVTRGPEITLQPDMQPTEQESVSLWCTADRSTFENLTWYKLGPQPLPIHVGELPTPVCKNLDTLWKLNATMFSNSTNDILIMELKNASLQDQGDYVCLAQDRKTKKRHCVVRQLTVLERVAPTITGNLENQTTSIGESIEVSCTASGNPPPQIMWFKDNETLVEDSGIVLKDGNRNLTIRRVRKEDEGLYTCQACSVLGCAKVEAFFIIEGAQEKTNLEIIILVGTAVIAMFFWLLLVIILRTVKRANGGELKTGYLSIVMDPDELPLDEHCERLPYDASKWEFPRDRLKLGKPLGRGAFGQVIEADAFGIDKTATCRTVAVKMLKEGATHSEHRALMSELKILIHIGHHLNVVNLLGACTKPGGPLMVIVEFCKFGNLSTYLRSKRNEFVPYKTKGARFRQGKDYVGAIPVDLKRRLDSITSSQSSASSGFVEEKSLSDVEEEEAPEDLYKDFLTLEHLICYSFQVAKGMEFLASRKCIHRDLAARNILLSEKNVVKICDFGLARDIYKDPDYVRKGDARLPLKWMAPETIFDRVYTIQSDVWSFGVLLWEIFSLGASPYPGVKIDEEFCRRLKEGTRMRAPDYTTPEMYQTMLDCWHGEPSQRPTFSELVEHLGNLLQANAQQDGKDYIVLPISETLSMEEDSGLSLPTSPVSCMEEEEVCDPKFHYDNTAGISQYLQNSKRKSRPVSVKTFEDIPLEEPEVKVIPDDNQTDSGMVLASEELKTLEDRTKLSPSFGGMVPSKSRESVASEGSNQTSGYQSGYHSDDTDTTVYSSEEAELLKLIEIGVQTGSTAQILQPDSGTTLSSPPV
T5 sequence (P49841 whole entry): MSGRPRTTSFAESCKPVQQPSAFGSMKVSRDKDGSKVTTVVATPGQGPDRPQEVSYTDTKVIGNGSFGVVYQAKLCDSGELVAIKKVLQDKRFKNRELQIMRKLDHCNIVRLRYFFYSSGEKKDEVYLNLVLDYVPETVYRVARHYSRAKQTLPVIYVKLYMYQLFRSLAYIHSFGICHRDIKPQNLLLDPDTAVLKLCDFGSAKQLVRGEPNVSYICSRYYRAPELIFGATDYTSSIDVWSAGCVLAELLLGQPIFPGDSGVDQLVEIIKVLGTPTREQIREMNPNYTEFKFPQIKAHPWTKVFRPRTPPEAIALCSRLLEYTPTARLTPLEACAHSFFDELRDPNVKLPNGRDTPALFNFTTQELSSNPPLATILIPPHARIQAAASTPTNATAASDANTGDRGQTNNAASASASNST

O=c1[nH]c(=O)n([C@H]2C[C@H](O)[C@@H](CO)O2)cc1F [NCGC00023722-08]
IC50/EC50, hKDR LANCE (assay number 32) (hKDR): > 20 µM | IC50/EC50, Basal_Viability ATP Colo 320 (assay number 27) (Colo320): > 20 µM | IC50/EC50, hp70S6K1 LANCE (assay number 31) (hp70S6K1 (RPS6KB1)): > 20 µM | IC50/EC50, Basal_Viability ATP SNU-C1 (assay number 30) (SNU-C1): > 20 µM | IC50/EC50, VEGF_ADSC\ECFC Angio Hoechst NucArea (assay number 3) [1]: > 10 µM | IC50/EC50, VEGF_ADSC\ECFC Angio CD31 TubeArea (assay number 2) [2]: 0.0216 µM | IC50/EC50, Hela CellCycMod PI 2N (assay number 14) (HeLa cells; 2N): > 10 µM | IC50/EC50, Hela CellCycMod PI 4N (assay number 16) (HeLa cells; 4N): > 10 µM | IC50/EC50, Hela CellCycMod PI Cell Number (assay number 18) (HeLa cells; Cell Number): > 10 µM | IC50/EC50, Hela CellCycMod PI MI (assay number 17) (HeLa cells; MI): > 10 µM | IC50/EC50, Hela CellCycMod PI S Phase (assay number 15) (HeLa cells; S Phase): 0.1688 µM | IC50/EC50, Basal_Viability ATP SW480 (assay number 24) (SW480): > 20 µM | IC50/EC50, Basal_Viability ATP HT-29 (assay number 28) (HT-29): > 20 µM | IC50/EC50, Basal_Viability ATP HCT116 (assay number 25) (HCT116): 0.001 µM | IC50/EC50, Basal_Viability ATP RKO (assay number 29) (RKO): 0.001 µM | IC50/EC50, GSK3b inh pretreated_Viability ATP HCT116 (assay number 26) ([3]; GSK3b inh pretreated): 0.001 µM | IC50/EC50, hJAK2 LANCE (assay number 33) (hJAK2): > 20 µM | IC50/EC50, hFLT3 LANCE (assay number 35) (hFLT3): > 20 µM | IC50/EC50, hGSK3b LANCE (assay number 34) (hGSK3b): > 20 µM | IC50/EC50, Basal_Viability ATP DLD-1 (assay number 23) (DLD-1): 0.001 µM

S=c1nc[nH]c2nc[nH]c12 [NCGC00094717-06]
IC50 (hKDR; assay number 32): > 20 µM | IC50 (Colo320; assay number 27): 1.3 µM | IC50 (hp70S6K1 (RPS6KB1); assay number 31): > 20 µM | IC50 (SNU-C1; assay number 30): > 20 µM | IC50 [1]: > 10 µM | IC50 [2]: 0.915 µM | IC50 (HeLa cells; [4]): > 10 µM | IC50 (HeLa cells; [5]): > 10 µM | IC50 (HeLa cells; [6]): > 10 µM | IC50 (HeLa cells; assay number 18, cell number, read-out: Hela CellCycMod PI Cell Number summarized IC50): > 10 µM | IC50 (SW480; assay number 24): 1.04 µM | IC50 (HT-29; assay number 28): 0.635 µM | IC50 (HCT116; assay number 25): 0.259 µM | IC50 (RKO; assay number 29): 0.659 µM | IC50 [3, 7]: 1.42 µM | IC50 (hJAK2; assay number 33): > 20 µM | IC50 (hFLT3; assay number 35): > 20 µM | IC50 (hGSK3b; assay number 34): > 20 µM | IC50 (DLD-1; assay number 23): 0.26 µM

Oc1c(Cl)cc(Cl)c2cccnc12 [NCGC00095264-04]
IC50 (hKDR; assay number 32): > 20 µM | IC50 (Colo320; assay number 27): 0.0493 µM | IC50 (hp70S6K1 (RPS6KB1); assay number 31): > 20 µM | IC50 (SNU-C1; assay number 30): 0.495 µM | IC50 [1]: > 10 µM | IC50 [2]: 2 µM | IC50 (HeLa cells; [4]): > 10 µM | IC50 (HeLa cells; [5]): > 10 µM | IC50 (HeLa cells; [6]): > 10 µM | IC50 (SW480; assay number 24): 0.0438 µM | IC50 (HT-29; assay number 28): > 20 µM | IC50 (HCT116; assay number 25): 0.0475 µM | IC50 (RKO; assay number 29): 0.0627 µM | IC50 [3, 7]: 0.0393 µM | IC50 (hJAK2; assay number 33): > 20 µM | IC50 (hFLT3; assay number 35): > 20 µM | IC50 (hGSK3b; assay number 34): > 20 µM | IC50 (DLD-1; assay number 23): 0.409 µM

COc1c(C)c2c(c(O)c1C/C=C(\C)CCC(=O)OCCN1CCOCC1)C(=O)OC2 [NCGC00159459-04]
hKDR LANCE IC50/EC50 (hKDR; assay number 32): > 20 µM | Basal_Viability ATP Colo 320 IC50/EC50 (Colo320; assay number 27): 0.001 µM | hp70S6K1 LANCE IC50/EC50 (hp70S6K1 (RPS6KB1); assay number 31): > 20 µM | Basal_Viability ATP SNU-C1 IC50/EC50 (SNU-C1; assay number 30): > 20 µM | VEGF_ADSC\ECFC Angio Hoechst NucArea IC50/EC50 [1]: > 10 µM | VEGF_ADSC\ECFC Angio CD31 TubeArea IC50/EC50 [2]: 1.2605 µM | Hela CellCycMod PI 2N IC50/EC50 (HeLa cells; assay number 14, 2N): > 10 µM | Hela CellCycMod PI S Phase IC50/EC50 (HeLa cells; assay number 15, S phase): 0.0147 µM | Hela CellCycMod PI 4N IC50/EC50 (HeLa cells; assay number 16, 4N): > 10 µM | Hela CellCycMod PI MI IC50/EC50 (HeLa cells; assay number 17, MI): > 10 µM | Hela CellCycMod PI Cell Number IC50/EC50 (HeLa cells; assay number 18, cell number): > 10 µM | Basal_Viability ATP SW480 IC50/EC50 (SW480; assay number 24): 2.5974 µM | Basal_Viability ATP HT-29 IC50/EC50 (HT-29; assay number 28): > 20 µM | Basal_Viability ATP HCT116 IC50/EC50 (HCT116; assay number 25): 0.0672 µM | Basal_Viability ATP RKO IC50/EC50 (RKO; assay number 29): 0.1648 µM | GSK3b inh pretreated_Viability ATP HCT116 IC50/EC50 [3, 7]: 0.0498 µM | hJAK2 LANCE IC50/EC50 (hJAK2; assay number 33): > 20 µM | hFLT3 LANCE IC50/EC50 (hFLT3; assay number 35): > 20 µM | hGSK3b LANCE IC50/EC50 (hGSK3b; assay number 34): > 20 µM | Basal_Viability ATP DLD-1 IC50/EC50 (DLD-1; assay number 23): > 20 µM
